From publication PMC10184313, “Inhibition of Thiamine Diphosphate-Dependent Enzymes by Triazole-Based Thiamine Analogues” (ACS Medicinal Chemistry Letters, 2023)

Tests used:
E. coli OGDHc E1 = molecular target: T1, E. coli OGDHc E1 (Escherichia coli, UniProt P0AFG3); assay: E. coli OGDHc E1 inhibitory activity assay (DCPIP reduction); type: biochemical; conditions: for IC50: [ThDP] 30 μM; for Ki: determined according to the KM for ThDP
T1 sequence (P0AFG3 1-933): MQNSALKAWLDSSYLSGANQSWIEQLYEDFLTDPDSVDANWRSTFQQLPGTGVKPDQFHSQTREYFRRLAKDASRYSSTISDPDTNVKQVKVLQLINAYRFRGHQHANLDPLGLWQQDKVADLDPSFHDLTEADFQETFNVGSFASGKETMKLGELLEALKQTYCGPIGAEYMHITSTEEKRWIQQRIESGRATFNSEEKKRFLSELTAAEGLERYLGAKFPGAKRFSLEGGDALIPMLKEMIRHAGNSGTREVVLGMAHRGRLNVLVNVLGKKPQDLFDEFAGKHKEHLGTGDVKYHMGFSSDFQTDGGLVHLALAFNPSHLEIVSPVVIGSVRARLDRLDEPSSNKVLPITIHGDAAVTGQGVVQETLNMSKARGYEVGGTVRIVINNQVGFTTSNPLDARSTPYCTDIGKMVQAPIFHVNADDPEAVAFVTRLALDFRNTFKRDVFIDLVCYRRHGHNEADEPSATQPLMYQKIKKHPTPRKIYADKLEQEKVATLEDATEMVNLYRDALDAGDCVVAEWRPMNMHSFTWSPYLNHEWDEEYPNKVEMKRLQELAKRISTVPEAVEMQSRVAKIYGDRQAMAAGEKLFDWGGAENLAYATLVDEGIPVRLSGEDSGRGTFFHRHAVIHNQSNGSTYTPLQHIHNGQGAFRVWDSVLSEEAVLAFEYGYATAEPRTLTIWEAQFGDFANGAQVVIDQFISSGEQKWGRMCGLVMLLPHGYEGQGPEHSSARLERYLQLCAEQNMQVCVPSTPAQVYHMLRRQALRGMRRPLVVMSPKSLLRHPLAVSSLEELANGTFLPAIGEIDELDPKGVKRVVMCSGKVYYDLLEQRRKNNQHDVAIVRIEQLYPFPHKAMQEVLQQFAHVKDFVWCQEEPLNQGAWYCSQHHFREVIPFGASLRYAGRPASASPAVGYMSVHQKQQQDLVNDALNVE
Procedure: E. coli OGDHc E1 inhibitory activity assay. E. coli OGDHc E1 was from our previous work 5 and had been donated by R. Frank. Its activity was determined by monitoring DCPIP reduction at 600 nm using a microplate reader (CLARIOstar) and conducted as described 1,2 with some modifications. The percentage inhibition of compounds against E. coli OGDHc E1 was assayed at a final concentration of 250 µM. The reaction buffer (50 mM KH 2PO4 and 2 mM MgCl 2, pH 7) contained 50 µM ThDP (or 125 µM in the competition assay), 0.5 mM DCPIP, and 6.7 mg/ml E. coli OGDHc E1. The reaction mixture was preincubated at 37 °C for 60 min, then reaction was initiated by adding α-ketoglutarate to a final concentration of 10 mM. To determine the IC 50, ThDP concentration was lowered to 30 µM, and inhibitor concentration was varied (2-1000 µM). Specific activity was calculated using the molar […]
for the PDHc E1 assay. […] 5 […]

A. viridans PO = molecular target: T2, A. viridans PO (Aerococcus viridans, UniProt A9X9K8); assay: A. viridans PO inhibitory activity assay (quinoneimine dye); type: biochemical; conditions: for IC50: [ThDP] 50 μM; for Ki: determined according to the KM for ThDP
T2 sequence (A9X9K8 1-592): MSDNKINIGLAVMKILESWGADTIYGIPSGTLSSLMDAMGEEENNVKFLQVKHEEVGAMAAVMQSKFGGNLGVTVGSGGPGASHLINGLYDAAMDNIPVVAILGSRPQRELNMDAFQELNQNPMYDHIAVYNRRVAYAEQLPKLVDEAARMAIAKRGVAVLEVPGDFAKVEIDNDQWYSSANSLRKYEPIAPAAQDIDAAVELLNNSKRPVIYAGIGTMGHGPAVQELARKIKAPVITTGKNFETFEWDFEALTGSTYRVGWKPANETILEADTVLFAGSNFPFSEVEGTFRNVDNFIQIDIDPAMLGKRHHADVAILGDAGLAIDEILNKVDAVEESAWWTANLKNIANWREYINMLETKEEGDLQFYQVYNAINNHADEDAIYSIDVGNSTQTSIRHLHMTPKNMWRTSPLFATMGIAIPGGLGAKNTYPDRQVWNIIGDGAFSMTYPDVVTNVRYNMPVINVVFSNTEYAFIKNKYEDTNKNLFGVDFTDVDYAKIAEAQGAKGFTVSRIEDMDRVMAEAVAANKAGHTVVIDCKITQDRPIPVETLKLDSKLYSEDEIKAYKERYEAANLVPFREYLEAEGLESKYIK
Procedure: A. viridans PO inhibitory activity assay. A. viridans PO and horseradish peroxidase were purchased from Sigma. A. viridans PO activity was determined by monitoring appearance of quinoneimine dye at 550 nm using a microplate reader (CLARIOstar) and conducted as described 1 with some modifications.
The percentage inhibition of compounds against A. viridans PO was assayed at a final concentration of 250 µM. The reaction buffer (50 mM KH 2PO4 and 10 mM MgCl 2, pH 5.9) contained 50 µM ThDP (or 125 µM in the competition assay), 10 µM flavin adenine dinucleotide (FAD), 0.15% 4-Aminoantipyrine, 0.3% N-Ethyl-N-(2-hydroxy-3-sulfopropyl)-m-toluidine (EHSPT), 50 µg/mL horseradish peroxidase and 0.35 U/mL A. viridans PO. The reaction mixture was preincubated at 37 °C for 30 min, then reaction was initiated by adding pyruvate to a final concentration of 50 mM. To determine the IC 50, inhibitor concentration was varied (2-1000 µM) with ThDP concentration at 50 µM. 1 unit of PO activity is defined as 1 μmol of hydrogen peroxide produced per minute. The enzyme IC 50 values were calculated as described for the PDHc E1 assay. […]

[1] = [Compound] = 250 μM, [ThDP] = 50 μM
[2] = increased ThDP: [Compound] = 250 μM, [ThDP] = 125 μM

SMILES	inhibition at 250 µM (E. coli OGDHc E1; [1]) [%]	Inhibition (%) PO (A. viridans PO; [1]) [%]	inhibition at 250 µM (E. coli OGDHc E1; [2]) [%]	Inhibition (%) PO (A. viridans PO; [2]) [%]	IC50 (E. coli OGDHc E1) [µM]	Ki (E. coli OGDHc E1) [µM]	IC50 (A. viridans PO) [µM]	Ki (A. viridans PO) [µM]
Cc1ncc(Cn2cc(CCO)nn2)c(N)n1 [Compound 9a]	57 ± 4	< 20						
Cc1ncc(Cn2cc(CCCO)nn2)c(N)n1 [Compound 9b]	50 ± 3	< 20						
Cc1ncc(Cn2cc(CCCCO)nn2)c(N)n1 [Compound 9c]	51 ± 2	< 20						
Cc1ncc(Cn2cc(CCOC(=O)c3cccc(-c4noc(C(F)(F)F)n4)c3)nn2)c(N)n1 [Compound 13a]	< 20	< 20						
Cc1ncc(Cn2cc(CCOC(=O)c3cccc(C#N)c3)nn2)c(N)n1 [Compound 14a]	< 20	< 20						
Cc1ncc(Cn2cc(CCn3cc(-c4ccccc4)nn3)nn2)c(N)n1 [Compound 15a]	23 ± 3	22 ± 2	< 20	<20				
Cc1ncc(Cn2cc(CCCn3cc(-c4ccccc4)nn3)nn2)c(N)n1 [Compound 15b]	< 20	< 20	< 20	<20				
Cc1ncc(Cn2cc(CCCCn3cc(-c4ccccc4)nn3)nn2)c(N)n1 [Compound 15c]	< 20	< 20	< 20	<20				
Cc1ncc(Cn2cc(CCn3cc(-c4ccc(F)cc4)nn3)nn2)c(N)n1 [Compound 16a]	25 ± 4	< 20	< 20	<20				
Cc1ncc(Cn2cc(CCCn3cc(-c4ccc(F)cc4)nn3)nn2)c(N)n1 [Compound 16b]	< 20	< 20	< 20	<20				
Cc1ncc(Cn2cc(CCCCn3cc(-c4ccc(F)cc4)nn3)nn2)c(N)n1 [Compound 16c]	< 20	< 20	< 20	<20				
COc1ccc(-c2cn(CCc3cn(Cc4cnc(C)nc4N)nn3)nn2)cc1 [Compound 17a]	21 ± 3	< 20	< 20	<20				
COc1ccc(-c2cn(CCCc3cn(Cc4cnc(C)nc4N)nn3)nn2)cc1 [Compound 17b]	< 20	< 20	< 20	<20				
COc1ccc(-c2cn(CCCCc3cn(Cc4cnc(C)nc4N)nn3)nn2)cc1 [Compound 17c]	< 20	< 20	< 20	<20				
Cc1ncc(Cn2cc(CCNS(=O)(=O)C(F)(F)F)nn2)c(N)n1 [Compound 18a]	48 ± 2	< 20						
Cc1ncc(Cn2cc(CCCNS(=O)(=O)C(F)(F)F)nn2)c(N)n1 [Compound 18b]	42 ± 3	< 20						

SMILES	inhibition at 250 µM (E. coli OGDHc E1; [1]) [%]	Inhibition (%) PO (A. viridans PO; [1]) [%]	inhibition at 250 µM (E. coli OGDHc E1; [2]) [%]	Inhibition (%) PO (A. viridans PO; [2]) [%]	IC50 (E. coli OGDHc E1) [µM]	Ki (E. coli OGDHc E1) [µM]	IC50 (A. viridans PO) [µM]	Ki (A. viridans PO) [µM]
Cc1ncc(Cn2cc(CCCCNS(=O)(=O)C(F)(F)F)nn2)c(N)n1 [Compound 18c]	58 ± 4	22 ± 4						
Cc1ncc(Cn2cc(CCNC(=O)c3cccc(-c4noc(C(F)(F)F)n4)c3)nn2)c(N)n1 [Compound 19a]	< 20	< 20						
Cc1ncc(Cn2cc(CCNC(=O)c3cccc(C#N)c3)nn2)c(N)n1 [Compound 20a]	< 20	< 20						
COc1cccc(C(=O)NCCc2cn(Cc3cnc(C)nc3N)nn2)c1 [Compound 21a]	63 ± 3	< 20						
COc1cccc(C(=O)NCCCc2cn(Cc3cnc(C)nc3N)nn2)c1 [Compound 21b]	58 ± 5	< 20						
COc1cccc(C(=O)NCCCCc2cn(Cc3cnc(C)nc3N)nn2)c1 [Compound 21c]	25 ± 3	< 20						
COc1ccccc1C(=O)NCCc1cn(Cc2cnc(C)nc2N)nn1 [Compound 22a]	80 ± 4	< 20						
COc1ccccc1C(=O)NCCCc1cn(Cc2cnc(C)nc2N)nn1 [Compound 22b]	56 ± 3	< 20						
COc1ccccc1C(=O)NCCCCc1cn(Cc2cnc(C)nc2N)nn1 [Compound 22c]	35 ± 3	< 20						
Cc1ncc(Cn2cc(CCC(=O)NO)nn2)c(N)n1 [Compound 24a]	73 ± 2	< 20						
Cc1ncc(Cn2cc(CCCC(=O)NO)nn2)c(N)n1 [Compound 24b]	> 90	35 ± 5	78 ± 3	27 ± 4	20 ± 2	2.02	202 ± 19	20.2
Cc1ncc(Cn2cc(CCCCC(=O)NO)nn2)c(N)n1 [Compound 24c]	> 90	42 ± 5	82 ± 2	24 ± 4	15 ± 3	1.46	232 ± 23	23.2
Cc1ncc(Cn2cc(CCC(=O)Nc3ccccc3N)nn2)c(N)n1 [Compound 26a]	63 ± 2	< 20						
Cc1ncc(Cn2cc(CCCC(=O)Nc3ccccc3N)nn2)c(N)n1 [Compound 26b]	52 ± 2	< 20						
Cc1ncc(Cn2cc(CCCCC(=O)Nc3ccccc3N)nn2)c(N)n1 [Compound 26c]	30 ± 2	< 20						
Cc1ncc(C[n+]2csc(CCO[P@@](=O)(O)OP(=O)(O)O)c2C)c(O)n1 [OxThDP 7b, oxythiamine diphosphate, reference compound]	62 ± 4	48 ± 4	41 ± 4	32 ± 5				
